Test results as given in patent publication US5068247A, “2-aminopentanoic acid compounds and their use as immunosuppressants” (priority 1989, dated 1991).
≈ marks a conversion by molar mass, not a printed value. Structures can show the parent of a compound that is named as a salt.

Tests used:
[1] = system: IL-2 production in PHA-stimulated mouse spleen cells; assay: suppression of IL-2 production in PHA-stimulated mouse spleen cells; format: cell-based
Procedure: (§1) The suppression of IL-2 and IL-3 production in the mitogen-stimulated mouse spleen cells was examined as follows:
(§2) The spleen was resected from 5- to 8-week-old male C3H/HeN mice, and a single cell suspension of spleen cells was prepared by using the RPMI1640 culture medium. After hemolytic treatment, the concentration of the suspension was adjusted to 10^7 cells/ml by using the RPMI1640 culture medium supplemented with 20% FCS, to which 10 μg/ml of phytohemagglutinin (PHA) was added as mitogen. […] After termination of culture, the supernatant was collected and used as the culture supernatant of PHA-stimulated mouse spleen cells.
The IL-2 activity in the culture supernatant of PHA-stimulated mouse spleen cells was assayed as follows:
IL-2 dependent mouse cell line CTLL-2 cells were suspended in the RPMI1640 culture medium supplemented with 30% FCS to the concentration of 2×10^5 cells/ml. One hundred μl of the cell suspension and 100 μl of the two-fold serial dilution of the culture supernatant of PHA-stimulated mouse spleen cells were added to a 96-well flat-bottomed microtest plate. […] The IL-2 activity is expressed in U/ml as the dilution at which the absorbancy measured by MTT method was 50% of the maximum.

[2] = system: mouse allogenic MLR (BALB/c mouse spleen cells stimulated with C57BL/6 mouse spleen cells); assay: mouse allogenic mixed lymphocyte reaction (MLR), 3H-thymidine uptake; format: cell-based
Procedure: The immunosuppressive activity of the compounds was assayed on the basis of mouse allogenic mixed lymphocyte reaction (hereinafter sometimes abbreviated as MLR). Mouse allogenic MRL was carried out using a mixed culture of BALB/c mouse (H-2^d) spleen cells as the responder cells and mitomycin C-treated C57BL/6 ([…]) mouse spleen cells as the stimulator cells in equal amounts.
The responder cells were prepared as follows:
The spleen was resected from 5- to 6-week-old BALB/c mice, and single cell suspension of spleen cells was prepared by using the RPMI1640 culture medium (containing 60 μg/ml of kanamycin sulfate, 2 mM of L-glutamine, 10 mM of N-2-hydroxyethylpiperazine-N'-2-ethanesulphonate (HEPES) and 0.1% sodium hydrogencarbonate) to which heat-inactivated fetal calf serum (hereinafter sometimes abbreviated as FCS) had been added to 5%. After hemolytic treatment, the cell suspension was adjusted to a concentration of 10^7 cells/ml with the RPMI1640 culture medium supplemented with 10^-4 M 2-mercapto-ethanol and 20% FCS, and was used as the responder cell suspension.
The stimulator cells were prepared as follows: The spleen was resected from 5- to 6-week-old male C57BL/6 mice, and a single cell suspension of spleen cells was prepared by using the RPMI1640 culture medium. After hemolytic treatment, the cells were treated with 40 μg/ml of mitomycin C at 37° C. for 60 minutes. After washing three times, the cell suspension was adjusted to a concentration of 10^7 cells/ml with the RPMI1640 culture medium supplemented with 10^-4 M 2-mercapto-ethanol and 20% FCS, and was used as the stimulator cell suspension.
The blastogenesis of lymphocytes was assayed using ^3 H-thymidine uptake as an index. That is, after termination of culture, 18.5 KBq/well of ^3 H-thymidine was added thereto and the suspension was cultured for 4 hours. Cells were harvested by a cell-harvester, and the radioactivity incorporated into the cells was determined by a liquid scintillation counter, which was used as an index of blastogenesis of lymphocytes in the mouse allogenic MLR. The suppression of the mouse allogenic MLR was evaluated by calculating the percent suppression by the following formula.
The test substance dissolved in methanol was diluted with the RPMI1640 culture medium and put to use.

[3] = system: IL-3 production in PHA-stimulated mouse spleen cells; assay: suppression of IL-3 production in PHA-stimulated mouse spleen cells; format: cell-based
Procedure: as §1, §2
The IL-3 activity was assayed as follows:
IL-3-dependent mouse cell line FDC-P2 cells were suspended in the RPMI1640 culture medium supplemented with 10% FCS to the concentration of 2×10^5 cells/ml. One hundred μl of the cell suspension and 100 μl of the two-fold serial dilution of the culture supernatant of PHA-stimulated mouse spleen cells described above were added to a 96-well flat-bottomed microtest plate. […] The IL-3 activity is expressed in U/ml as the dilution at which the absorbancy measured by MTT method was 50% of the maximum.

[4] = system: allo-specific cytotoxic antibody in serum of EL4-immunized BALB/c mice; assay: suppression of allo-specific cytotoxic antibody production induced by allogenic cell immunization of mouse; format: in vivo
Procedure: Male 5- to 7-week-old BALB/c mice were immunized with leukemia cell EL4 derived from C57BL/6 mice (10^7 cells/mouse, intraperitoneal administration) in the same way as in Experiment Example 9, and the […] Nine to ten days after immunization, a serum was collected from the mice. Fifty μl of the two-fold serial dilution of the serum, 50 μl of a guinea pig complement and EL4 cell suspension labelled with ^51 Cr as the target cell (5×10^4 cells/ml, 100 μl) were together added to a 96-well microtest plate. After incubation at 37° C. for 1 hour, the amount of ^51 Cr released in the supernatant was measured, and the complement-dependent cytotoxicity was calculated by the following formula. [formula]
The value of allo-specific cytotoxic antibody determined as above was expressed by the titer calculated on the basis of the concentration at which the releasing amount of ^51 Cr was 50% of that of ^51 Cr-labelled target cells treated with 0.1 N HCl.

[5] = system: allo-reactive cytotoxic T cells in spleen of EL4-immunized BALB/c mice; assay: suppression of allo-reactive cytotoxic T cells induced by immunization of mouse with allogenic cells; format: in vivo; conditions: Table 9F
Procedure: Male 5- to 7-week-old BALB/c mice (H-2^d) were immunized with leukemia cell EL4 derived from C57BL/6 mice (H-2^b) (10^7 cells/mouse, intraperitoneal administration), and the test substance was administered intraperitoneally 5 times at the doses of 0.001 to 3 mg/kg/day or orally at the doses of 0.3 to 10 mg/kg/day from the day of immunization. Nine to ten days after immunization, the spleen was resected from the mice to prepare a single cell suspension and the suspension was used as effector cell suspension. The ^51 Cr-release assay was carried out in the same way as in Experiment Example 3, using EL4 cells as the target cells to measure the cytotoxic activity.
The activity of allo-reactive cytotoxic T cell is indicated by lytic unit (LU) per spleen. One lytic unit (LU) is defined as the number of effector cells required to cause 25% lysis of 5×10^3 target cells. At the same time, the body weight of mouse and number of spleen cells were also determined.

[6] = Mus musculus, 24 h, 0.001 μg/ml, read-out: Suppression
[7] = Mus musculus, 24 h, 0.01 μg/ml, read-out: Suppression
[8] = Mus musculus, 24 h, 0.1 μg/ml, read-out: Suppression
[9] = Mus musculus, 24 h, 1 μg/ml, read-out: Suppression
[10] = 0.003 mg/kg/day iv × 9, Table 10F
[11] = 0.01 mg/kg/day iv × 9, Table 10F
[12] = 0.03 mg/kg/day ip × 5, Table 10E
[13] = 0.03 mg/kg/day iv × 9, Table 10F
[14] = 0.1 mg/kg/day ip × 5, Table 10E
[15] = 0.1 mg/kg/day iv × 9, Table 10F
[16] = 0.3 mg/kg/day ip × 5, Table 10E
[17] = 0.3 mg/kg/day iv × 9, Table 10F

Work on `N[C@](CO)(C(=O)O)[C@@H](O)[C@H](O)CCO` [Example 6] yielded an IL-2 activity ([1]; 0.001 μg/ml) of 12.6 U/ml, an IL-2 activity ([1]; 0.01 μg/ml) of 10.2 U/ml and an IL-2 activity ([1]; 0.1 μg/ml) of 9.5 U/ml. It also gave an IL-2 activity ([1]; 1 μg/ml) of 8.3 U/ml, an inhibition at 0.001 µg/mL [1, 6] of 6.7% and an inhibition at 0.01 µg/mL [1, 7] of 24.4%. The inhibition at 0.1 µg/mL [1, 8] was 29.6%, the inhibition at 1 µg/mL [1, 9] was 38.5% and the 3H-thymidine uptake ([2]; 0.0001 μg/ml, Table 1A) was 16771 cpm. For the same compound, the 3H-thymidine uptake ([2]; 0.001 μg/ml, Table 1A) was 13692 cpm, the 3H-thymidine uptake ([2]; 0.01 μg/ml, Table 1A) was 13806 cpm and the 3H-thymidine uptake ([2]; 0.1 μg/ml, Table 1A) was 14508 cpm. It also gave a 3H-thymidine uptake ([2]; 1 μg/ml, Table 1A) of 7545 cpm, an inhibition at 0.0001 µg/mL ([2]; Mus musculus, Lymphocyte, 0.0001 μg/ml, Table 1A, read-out: Suppression) of 9.9% and an inhibition at 0.001 µg/mL ([2]; Mus musculus, Lymphocyte, 0.001 μg/ml, Table 1A, read-out: Suppression) of 18.5%. For the same compound, the inhibition at 0.01 µg/mL ([2]; Mus musculus, Lymphocyte, 0.01 μg/ml, Table 1A, read-out: Suppression) was 27.5%, the inhibition at 0.1 µg/mL ([2]; Mus musculus, Lymphocyte, 0.1 μg/ml, Table 1A, read-out: Suppression) was 23.4% and the inhibition at 1 µg/mL ([2]; Mus musculus, Lymphocyte, 1 μg/ml, Table 1A, read-out: Suppression) was 64.8%. It also gave an IC50 ([2]; Mus musculus, Lymphocyte, read-out: 50%-inhibition concentration (IC50) in mouse allogenic MLR) of 0.045 mg/L (≈ 0.215 µM), an IL-3 activity ([3]; 0.001 μg/ml) of 23.8 U/ml and an IL-3 activity ([3]; 0.01 μg/ml) of 23.4 U/ml. The IL-3 activity ([3]; 0.1 μg/ml) was 23.3 U/ml, the IL-3 activity ([3]; 1 μg/ml) was 20.0 U/ml and the inhibition at 0.001 µg/mL [3, 6] was 2.9%. For the same compound, the inhibition at 0.01 µg/mL [3, 7] was 4.5%, the inhibition at 0.1 µg/mL [3, 8] was 4.9% and the inhibition at 1 µg/mL [3, 9] was 18.4%.

`CCCCCCCCCCCCC/C=C/C[C@@H](O)[C@H](O)[C@@](N)(CO)C(=O)O` [sodium salt of the compound of Example 5] was tested, and the “Allogenic cell-specific antibody in serum, suppression” value [4, 10] was 6.0%, the “Allogenic cell-specific antibody in serum, titer” value [4, 10] was 236 ± 76 and the “Allogenic cell-specific antibody in serum, suppression” value [4, 11] was 39.4%. The “Allogenic cell-specific antibody in serum, titer” value [4, 11] was 152 ± 27, the “Allogenic cell-specific antibody in serum, suppression” value [4, 12] was 50.3% and the “Allogenic cell-specific antibody in serum, titer” value [4, 12] was 94 ± 14. The “Allogenic cell-specific antibody in serum, suppression” value [4, 13] was 68.5%, the “Allogenic cell-specific antibody in serum, titer” value [4, 13] was 79 ± 50 and the “Allogenic cell-specific antibody in serum, suppression” value [4, 14] was 73.5%. The “Allogenic cell-specific antibody in serum, titer” value [4, 14] was 50 ± 4, the “Allogenic cell-specific antibody in serum, suppression” value [4, 15] was 84.1% and the “Allogenic cell-specific antibody in serum, titer” value [4, 15] was 40 ± 23. For the same compound, the “Allogenic cell-specific antibody in serum, suppression” value [4, 16] was 88.9%, the “Allogenic cell-specific antibody in serum, titer” value [4, 16] was 21 ± 8 and the “Allogenic cell-specific antibody in serum, suppression” value [4, 17] was 81.7%. The “Allogenic cell-specific antibody in serum, titer” value [4, 17] was 46 ± 11, the “production of allo-specific cytotoxic antibody, sodium salt relative to the compound of Example 5 (in words)” value ([4]; Table 10E) was “suppressive activity almost equivalent to that of the compound of Example 5 other than sodium salt” and the “induction of allo-reactive cytotoxic T cells, sodium salt relative to the compound of Example 5 (in words)” value [5] was “suppressive activity almost equivalent to that of the compound of Example 5 other than sodium salt”. The “suppressive activity of the sodium salt relative to that of the compound of Example 5” value ([2]; Table 1B) was “almost the equivalent suppressive activity”.

`CCCCCCCCCCCCC/C=C/C[C@@H](O)[C@H](O)[C@@](N)(CO)C(=O)O` [potassium salt of compound of Example 5] gave a 3H-thymidine uptake ([2]; 0.0001 μg/ml, Table 1B) of 5622 ± 898 cpm, a Suppression ([2]; 0.0001 μg/ml, Table 1B) of 0% and a 3H-thymidine uptake ([2]; 0.001 μg/ml, Table 1B) of 4984 ± 3755 cpm. It also gave a Suppression ([2]; 0.001 μg/ml, Table 1B) of 7.5%, a 3H-thymidine uptake ([2]; 0.01 μg/ml, Table 1B) of 1324 ± 16 cpm and a Suppression ([2]; 0.01 μg/ml, Table 1B) of 85.5%. The 3H-thymidine uptake ([2]; 0.1 μg/ml, Table 1B) was 787 ± 257 cpm, the Suppression ([2]; 0.1 μg/ml, Table 1B) was 97.0% and the 3H-thymidine uptake ([2]; 1 μg/ml, Table 1B) was 783 ± 28 cpm. The Suppression ([2]; 1 μg/ml, Table 1B) was 97.1%.
